Data on two molecules can be found in patent publication US20100004125A1 (priority 2007, published 2010).

Each structure is given as a SMILES string. Like-named read-outs stand apart in the source and are kept apart here.

This assay deals with Pyricularia oryzae. Format: cell-based.

In the case of `CN/C(=N\[N+](=O)[O-])NCc1cnc(Cl)s1` [Chlothianidin, (E)-1-(2-chloro-1,3-thiazol-5-ylmethyl)-3-methyl-2-nitroguanidine], the “Efficacy (%)” value was 8%. `CC1(C)CC/C(=C\c2ccc(Cl)cc2)C1(O)Cn1cncn1` (single isomer, unassigned; (+)) [Triticonazol, (+) E-5-(4-chlorobenzylidene)-2,2-dimethyl-1-(1H-1,2,4-triazol-1-ylmethyl)cyclopentanol]: the “Efficacy (%)” value (single compound, Conc 2 ppm, micro titer plate, 405 nm, 7 days after inoculation) came to 44%.
